Here are results for three compounds from patent publication US20250032477A1, “COMPOUNDS, PHARMACEUTICAL COMPOSITIONS, AND METHODS FOR THE TREATMENT, PREVENTION, OR MANAGEMENT OF HYPERPROLIFERATIVE DISORDERS” (VINCERX PHARMA GMBH, priority 2021, published 2025).

Read-outs that look alike come from different tables or passages of the source. Some results are limits rather than exact numbers.

What all share (experiment): Cytotoxicity assay (Version 2), automated, AC50, with or without elastase
The test system of one assay is 786-O. In kind it is cell-based, human. The protocol: (§1) Cultivation of cells was performed according to standard procedures with the media recommended by the provider. The cells, in a total volume of 100 μL, were seeded in a 96-well plate with a white bottom (#3610). After a 24 h incubation period at 37° C. and […], the medium was exchanged by adding 90 μL fresh medium. The treatment started by adding the test compound in 10 μL of culture medium to the cells in triplicates. Concentrations ranging from 10^−5 M to 10^−13 M were chosen. Two identically treated sets of samples were prepared. One set was treated with the test compound alone, whereas to the second set the compound and 10 nM elastase was added followed by a 72 h incubation period at 37° C. and 5% CO2. The proliferation was detected using the MTT assay (ATCC). At the end of the incubation period the MTT reagent was added to all samples for 4 h. Lysis of the cells followed by addition of the detergent was done overnight. The formed dye was detected at 570 nm. The proliferation of untreated but otherwise identically handled cells was define as the […].
(§2) The Cytotoxicity assay (Version 2) was performed as above described. Some changes were applied as the assays were performed in an automated fashion and the IC50 values determination was changed. Here the change in metabolic activity of the cells, in percent, was calculated by normalization of the measured values to the absorbance values of medium containing wells without cells (=−100%) and the absorbance of the DMSO-treated cells (=0%). AC50 values (activity concentration at −50%) were determined by means of a 4 parameter Hill-fit using GeneData Screener software.

In the next assay the test system is HT29. Type of assay: cell-based, human. As for the experimental part:
as §1, §2

The next assay deals with NCI H292. In kind it is cell-based, human. The protocol: as §1, §2
The subject of another assay is SUM149. In kind it is cell-based. As for the experimental part:
as §1, §2

`CCCNC(=O)Nc1cccc(S(=O)(=O)Nc2cccc([C@@H](CC(=O)O)NC(=O)Nc3ccc(NC(=O)NCCOCCOCCOCCC(=O)N[C@@H](CC(=O)O)C(=O)N4CCC[C@H]4C(=O)N[C@H](C(=O)O[C@]4(CC)C(=O)OCc5c4cc4n(c5=O)Cc5c-4nc4cc(F)c(C)c6c4c5[C@@H](N(CC)CC)CC6)C(C)C)cc3)c2)c1` [Compound 19, (1S,9S)-1-(diethylamino)-9-ethyl-5-fluoro-4-methyl-10,13-dioxo-2,3,9,10,13,15-hexahydro-1H,12H-benzo[de]pyrano[3′,4′:6,7]indolizino[1,2-b]quinolin-9-yl N-(14-{4-[({(1R)-2-carboxy-1-[3-({3-[(propylcarbamoyl)amino]benzene-1-sulfonyl}amino)phenyl]ethyl}carbamoyl)amino]anilino}-14-oxo-4,7,10-trioxa-13-azatetradecanan-1-oyl)-L-alpha-aspartyl-L-prolyl-L-valinate]: the AC50 was 1.1 to 10 nM in the assay on 786-O (786-O cells, Version 2, with elastase, activity concentration at −50%, read-out: 786-O AC50 +elastase); greater than 100 nM with 786-O (786-O cells, Version 2, without elastase, activity concentration at −50%, read-out: 786-O AC50 −elastase); 11 to 100 nM with HT29 (HT29 cells, Version 2, with elastase, activity concentration at −50%, read-out: HT29 AC50 +elastase); greater than 100 nM with HT29 (HT29 cells, Version 2, without elastase, activity concentration at −50%, read-out: HT29 AC50 −elastase); 11 to 100 nM in the assay with NCI H292 (NCI H292 cells, Version 2, with elastase, activity concentration at −50%, read-out: NCI H292 AC50 +elastase); greater than 100 nM in the assay with NCI H292 (NCI H292 cells, Version 2, without elastase, activity concentration at −50%, read-out: NCI H292 AC50 −elastase). In addition, the AC50 in the assay with SUM149 (SUM149 cells, Version 2, with elastase, activity concentration at −50%, read-out: SUM149 AC50 +elastase) was 1.1 to 10 nM; in the assay on SUM149 (SUM149 cells, Version 2, without elastase, activity concentration at −50%, read-out: SUM149 AC50 −elastase), greater than 100 nM.
In the case of `CCCNC(=O)Nc1cccc(S(=O)(=O)Nc2cccc([C@@H](CC(=O)O)NC(=O)Nc3ccc(NC(=O)NCCOCCOCCOCCC(=O)NCCCC[C@H](NC(=O)CCOCCOCCOCCNC(=O)Nc4ccc(NC(=O)N[C@H](CC(=O)O)c5cccc(NS(=O)(=O)c6cccc(NC(=O)NCCC)c6)c5)cc4)C(=O)NCCOCCOCCOCCC(=O)N[C@@H](CC(=O)O)C(=O)N4CCC[C@H]4C(=O)N[C@H](C(=O)O[C@]4(CC)C(=O)OCc5c4cc4n(c5=O)Cc5c-4nc4cc(F)c(C)c6c4c5[C@@H](NC(C)=O)CC6)C(C)C)cc3)c2)c1` [Compound 24], the AC50 with 786-O (read-out: 786-O AC50 +elastase) is 1.1 to 10 nM; in the assay with 786-O (read-out: 786-O AC50 −elastase), greater than 100 nM; with HT29 (read-out: HT29 AC50 +elastase) it was 11 to 100 nM; in the assay on HT29 (read-out: HT29 AC50 −elastase) it was greater than 100 nM; with NCI H292 (read-out: NCI H292 AC50 +elastase), 1.1 to 10 nM; in the assay on NCI H292 (read-out: NCI H292 AC50 −elastase), greater than 100 nM. Besides, the AC50 lay in the range of 1.1 to 10 nM in the assay with SUM149 (read-out: SUM149 AC50 +elastase) and 11 to 100 nM with SUM149 (read-out: SUM149 AC50 −elastase).
Consider `CC[C@@]1(O)C(=O)OCc2c1cc1n(c2=O)Cc2c-1nc1cc(F)c(C)c3c1c2[C@@H](N(C)C)CC3` [Compound 18, (1S,9S)-1-(dimethylamino)-9-ethyl-5-fluoro-9-hydroxy-4-methyl-1,2,3,9,12,15-hexahydro-10H,13H-benzo[de]pyrano[3′,4′:6,7]indolizino[1,2-b]quinoline-10,13-dione], for which the AC50 in the assay with 786-O (Homo sapiens, 786-0, read-out: 786-O AC50 +elastase) was in the range of 11 to 100 nM; with 786-O (Homo sapiens, 786-0, read-out: 786-O AC50 −elastase), 11 to 100 nM; in the assay on HT29 (Homo sapiens, HT-29, read-out: HT29 AC50 +elastase), 1.1 to 10 nM; in the assay with HT29 (Homo sapiens, HT-29, read-out: HT29 AC50 −elastase), 11 to 100 nM; with NCI H292 (Homo sapiens, NCI-H292, read-out: NCI H292 AC50 +elastase), 1.1 to 10 nM; in the assay on NCI H292 (Homo sapiens, NCI-H292, read-out: NCI H292 AC50 −elastase), 1.1 to 10 nM. In addition, the AC50 with SUM149 (SUM149, read-out: SUM149 AC50 +elastase) was 1.1 to 10 nM; with SUM149 (SUM149, read-out: SUM149 AC50 −elastase) it was 1.1 to 10 nM.
